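Compound exposure: 48 hours, 5 concentrations, 96-well plates. Here, GI50 denotes the concentration required for 50% inhibition of growth. Definition used: TGI = concentration required for complete inhibition of growth.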
Legend:
Experiment in all cases: inhibition of tumour cell growth, NCI panel, 48 h
[1] = system: A498 renal
[2] = system: A549 NSCLC
[3] = system: COLO 205 colon
[4] = system: EKVX NSCLC
[5] = system: IGROV1 ovarian
[6] = system: MCF7 breast
[7] = system: MDA-MB-435
[8] = system: MOLT-4 leukemia
[9] = system: NCI-H522 lung
[10] = system: OVCAR-3 ovarian
[11] = system: RXF 393 renal
[12] = system: SK-MEL-28 melanoma
[13] = system: SK-OV-3 ovarian
[14] = system: SNB-19 CNS
[15] = system: SNB-75 CNS
[16] = system: SR leukemia
[17] = system: UACC-62 melanoma
[18] = system: SF-539 CNS
[19] = system: MDA-N

Structure (SMILES)	TGI [1]	TGI [2]	TGI [3]	TGI [4]	TGI [5]	TGI [6]	TGI [7]	TGI [8]	TGI [9]	TGI [10]	TGI [11]	TGI [12]	TGI [13]	TGI [14]	TGI [15]	TGI [16]	TGI [17]	TGI [18]	TGI [19]	GI50 [15]
CSC1=C(C(=O)N(COCC[Si](C)(C)C)c2ccccc2Br)CCC(C(C)(C)C)C1 (configuration not stated)	85.9 µM	> 100 µM	25.7 µM	37.8 µM	> 100 µM	28 µM	> 100 µM	21.9 µM	24.6 µM	24.4 µM	23.1 µM	> 100 µM	> 100 µM	42.9 µM	> 100 µM	11.7 µM	39.9 µM	–	–	–
NC(CCCNc1ccc(O)cc1)C(=O)O (configuration not stated)	> 73.1 µM	> 100 µM	> 90.3 µM	> 88.8 µM	61.5 µM	–	–	56.9 µM	> 100 µM	35 µM	63.6 µM	> 100 µM	> 100 µM	> 100 µM	> 100 µM	55.8 µM	38.2 µM	83.5 µM	–	–
Cc1cc(C)c(-n2c(C)c(C)c(C#N)c2N)c(C)c1	97.1 µM	> 100 µM	38.9 µM	87.6 µM	> 100 µM	–	> 100 µM	68.5 µM	57.4 µM	> 100 µM	94.8 µM	> 100 µM	> 100 µM	> 100 µM	> 100 µM	38.4 µM	–	69.8 µM	> 100 µM	–
CC(C)NC1CCCCC2c3cc(F)ccc3[C@]12O (some centres not stated)	> 100 µM	> 100 µM	> 100 µM	> 100 µM	> 100 µM	–	–	> 100 µM	> 100 µM	> 100 µM	> 100 µM	> 100 µM	> 100 µM	> 100 µM	> 100 µM	–	> 100 µM	> 100 µM	–	–
CC(SC(=S)N(C)C)C(=O)Nc1nnc(-c2ccc(Cl)cc2)o1 (configuration not stated)	> 100 µM	> 100 µM	> 100 µM	–	> 100 µM	> 100 µM	> 100 µM	8.28 µM	–	> 100 µM	> 100 µM	> 100 µM	> 100 µM	> 100 µM	> 100 µM	19.9 µM	> 100 µM	> 100 µM	–	–
Clc1ccc(-c2c3nc(c(-c4ccc(Cl)cc4)c4ccc([nH]4)c(-c4ccc(Cl)cc4)c4nc(c(-c5ccc(Cl)cc5)c5ccc2[nH]5)C=C4)C=C3)cc1	–	> 100 µM	> 100 µM	> 100 µM	> 100 µM	> 100 µM	> 100 µM	> 100 µM	> 100 µM	> 100 µM	–	> 100 µM	> 100 µM	> 100 µM	63.4 µM	> 100 µM	> 100 µM	> 100 µM	–	–
CSC1=NC(=O)CCN1C1OCC(OC(C)=O)C(OC(C)=O)C1OC(C)=O (configuration not stated)	25.3 µM	> 31.6 µM	> 31.6 µM	> 31.6 µM	23 µM	> 100 µM	> 31.6 µM	> 31.6 µM	> 31.6 µM	18.6 µM	23.6 µM	25.4 µM	29.5 µM	> 31.6 µM	22.7 µM	> 31.6 µM	> 100 µM	28.7 µM	–	–
Cn1c(=O)c2c(nc(N3CCOCC3)n2CCCNCC(O)c2ccc(O)c(O)c2)n(C)c1=O (configuration not stated)	> 100 µM	> 100 µM	> 100 µM	> 100 µM	> 100 µM	> 100 µM	> 100 µM	> 100 µM	> 100 µM	> 100 µM	> 100 µM	> 100 µM	> 100 µM	> 100 µM	> 100 µM	> 100 µM	> 100 µM	> 100 µM	–	–
CC(=O)OC1COC(n2c(O)c(N=Nc3ccc([N+](=O)[O-])cc3)c3cc(Br)c([N+](=O)[O-])cc32)C(OC(C)=O)C1OC(C)=O (configuration not stated)	–	> 100 µM	> 100 µM	> 100 µM	70.3 µM	–	–	> 100 µM	> 100 µM	> 100 µM	89.8 µM	> 100 µM	> 100 µM	> 100 µM	–	> 100 µM	36.6 µM	> 100 µM	–	–
CN(C)CCNC(=O)c1ccccc1Nc1c(Cl)cccc1Cl	–	25.3 µM	25.8 µM	21.6 µM	36.3 µM	–	–	29.2 µM	–	–	10.8 µM	28.2 µM	26.8 µM	29.9 µM	9.52 µM	30.9 µM	31.4 µM	26.7 µM	–	–
COC(=O)C12OCC34C(CC5C(C)C6=CC(=O)OC6=CC5(C)C3C(O)C1O)OC(=O)C(OC(C)=O)C24 (configuration not stated)	43.9 µM	49.9 µM	22.6 µM	31 µM	65.1 µM	–	–	45.6 µM	24.6 µM	29.4 µM	29 µM	30.1 µM	79.4 µM	> 91 µM	42.1 µM	64.6 µM	21.9 µM	34 µM	–	14.7 µM
Cc1ccc([N+]2=NC(c3ccc([N+](=O)[O-])cc3)=NN(c3ccccc3)C2)cc1	> 100 µM	> 100 µM	> 100 µM	> 100 µM	> 100 µM	–	–	> 100 µM	39 µM	> 100 µM	> 100 µM	> 100 µM	–	> 100 µM	–	> 100 µM	–	–	–	–
Cc1nc2ccc(F)cc2c2c1CCN2c1ccccc1	77.2 µM	68 µM	27.1 µM	94.9 µM	> 100 µM	64.7 µM	32.8 µM	52.4 µM	47.1 µM	> 100 µM	35.7 µM	34.3 µM	–	> 100 µM	79.1 µM	37 µM	27.4 µM	44 µM	–	–
CC(/C=C/c1ccccc1)=N\N=C(C)\C=C\c1ccccc1	> 100 µM	> 100 µM	–	> 100 µM	> 100 µM	–	–	> 100 µM	> 100 µM	> 100 µM	–	> 100 µM	> 100 µM	–	> 100 µM	> 100 µM	–	–	–	–
C/C(=N\N)C(CN1CCCCC1)C(c1ccccc1)c1c(O)c2ccccc2oc1=O (configuration not stated)	> 100 µM	> 100 µM	> 100 µM	> 100 µM	> 100 µM	> 100 µM	> 100 µM	> 100 µM	> 100 µM	> 100 µM	> 100 µM	> 100 µM	> 100 µM	> 100 µM	> 100 µM	> 100 µM	> 100 µM	> 100 µM	–	–
CCN1C(=O)/C(=C\c2coc3ccccc3c2=O)SC1=S	> 100 µM	> 100 µM	> 100 µM	> 100 µM	> 100 µM	–	–	> 100 µM	> 100 µM	> 100 µM	> 100 µM	> 100 µM	> 100 µM	> 100 µM	> 100 µM	> 100 µM	> 100 µM	90.1 µM	–	–
c1ccc(C2(c3ccccc3)S/C(=C3/SC(c4ccccc4)(c4ccccc4)c4ccccc43)c3ccccc32)cc1	> 100 µM	> 100 µM	> 100 µM	> 100 µM	> 100 µM	–	> 100 µM	> 100 µM	> 100 µM	> 100 µM	> 100 µM	> 100 µM	> 100 µM	> 100 µM	> 100 µM	> 100 µM	> 100 µM	> 100 µM	> 100 µM	–
COc1cc(C(=O)O)cc2c1[nH]c1ccccc12	–	> 25 µM	> 25 µM	–	> 25 µM	–	–	> 25 µM	> 25 µM	> 25 µM	–	> 25 µM	> 25 µM	> 25 µM	–	> 25 µM	> 25 µM	> 25 µM	–	–
Clc1ccc(/C=c2\nc(-c3ccccc3)n3c2nc2ccccc23)cc1	> 100 µM	> 100 µM	> 100 µM	71.4 µM	> 100 µM	> 100 µM	> 100 µM	> 100 µM	–	> 100 µM	> 100 µM	0.952 µM	> 100 µM	> 100 µM	–	> 100 µM	> 100 µM	52.2 µM	–	–
SCc1ccc(-c2ccc(CS)cc2)cc1	> 64.3 µM	39.6 µM	37.4 µM	54.1 µM	32.5 µM	29.3 µM	22.8 µM	6.37 µM	37.7 µM	32.2 µM	32.9 µM	24.3 µM	33.2 µM	36.4 µM	28.1 µM	5.79 µM	41.2 µM	33.5 µM	–	–
COc1ccc2c(c1)CC[C@@H]1C2CC[C@]2(C)C(=N\O)/C(=N/O)CC12 (some centres not stated)	34.2 µM	24.7 µM	31.6 µM	38.9 µM	10 µM	–	–	21.1 µM	11.5 µM	26.8 µM	–	–	32.6 µM	32.9 µM	–	–	26.6 µM	35.1 µM	–	–
CN(C)CCn1c2c(c3ccccc31)CCc1ccccc1-2	–	28.3 µM	25.6 µM	32.4 µM	21.8 µM	30.5 µM	37.7 µM	29.1 µM	29.4 µM	27.7 µM	–	29.9 µM	32.7 µM	33.5 µM	–	27.1 µM	25.9 µM	26.2 µM	–	–

— PubChem BioAssay (NCI)
